Laboratory results as given in patent US10532068B2, “Dual molecular delivery of oligonucleotides and peptide containing conjugates” (Merck Sharp & Dohme Corp., priority 2013, dated 2020).
Where no end group is shown, it is not given here. [ ]: non-standard residue; d: D form. S‑S‑TGN = not defined here; TGN = not defined here

System: CTNNB1
Assay: In vivo evaluation in mice: liver mRNA knockdown measurement (TaqMan qPCR)
Set-up: species or system CD-1 mice
Experimental: Female CD-1 mice (Charles River) were injected in accordance with either a sequential dosing paradigm or a co-dosing paradigm. In the sequential dosing paradigm, the targeted siRNA (SCE) is dosed at t=0 and the targeted peptide is separately dosed up to 2 hr before the SCE (−2 hr) or up to 24 hr after the SCE (+24 hr). In the co-dosing paradigm, the SCE and peptides are co-formulated and dosed together in the same formulation as a single injection at t=0. The mice were dosed either by intravenous (i.v.) or subcutaneous (s.c.) injection of SCE and peptide. For the i.v. doses, the compounds were injected into the tail vein of the mice. For the s.c. doses, the compounds were injected in the subcutaneous space on the back of the mouse between the shoulder blades. At the indicated harvest times (measured from t=0 when the siRNA was dosed, regardless of when the peptide was dosed), the animals were sacrificed and 3 mm liver punches were collected, preserved in RNAlater (Ambion), and stored at 4° C. Separate 5 mm liver punches were collected, placed in 96-well plates, frozen on dry ice, and stored at −80° C. until use.
The 3 mm liver punches were removed from RNAlater and homogenized in Trizol (Invitrogen) using a bead mill tissue lyser (Qiagen); disruption was performed for two 5-minute cycles at 30 Hz. RNA extraction was performed using 1-bromo-2-chloropropane (Acros Organics) and total RNA was isolated from the aqueous phase using the MagMax RNA isolation method (Ambion). […] TaqMan qPCR analysis was performed with an ABI 7900 Real-Time PCR System using TaqMan Fast Advanced Master Mix (Applied Biosystems). All TaqMan probes and primers for CTNNB1 and PPIB (housekeeping gene) were purchased from Applied Biosystems as pre-validated gene expression assays. Results are calculated by the comparative Ct method, where the difference between the CTNNB1 Ct value and the PPIB Ct value (ΔCt) is calculated and then further normalized relative to the PBS control by taking a second difference (ΔΔCt), as described previously (1).

[1] = Table 6, mice, sequential, peptide IV 15 min after siRNA IV, TGN-L-siRNA-III 0.25 mg/kg, peptide 2 mg/kg
[2] = Table 6, mice, sequential, peptide IV 15 min after siRNA IV, TGN-L-siRNA-III 0.25 mg/kg, peptide 10 mg/kg

For “TGN-CDM-SEQ ID NO: 1801 (D): TGN-CDM peptide, peptide glfgeieelieeglenlidwgng; C8 made from same all-D sequence (SEQ ID NO: 1074) (G[dL][dF]G[dE][dI][dE][dE][dL][dI][dE][dE]G[dL][dE][dN][dL][dI][dD][dW]G[dN]G; also: TGN-CDM conjugate; listed as Homo sapiens)”, which “In vivo mRNA knockdown (%)” value (Table 8 (disulfide vs. ECL vs. CDM linkage), TGN-L-siRNA-II 0.25 mg/kg, targeted peptide 1 mg/kg) is on record?
The value was 23.0%.

What about the “In vivo mRNA knockdown (%)” value (Table 8 (disulfide vs. ECL vs. CDM linkage), TGN-L-siRNA-II 0.25 mg/kg, targeted peptide 3 mg/kg) of the same substance?
The value was 24.9%.

Which results are given for “TGN-S-S-SEQ ID NO: 935 (L) (C(TGN)GFFGEIAELIWEGLKNLIDWWNG; reading uncertain; also: TGN attached via disulfide (S-S); listed as Homo sapiens)”?
In vivo mRNA knockdown (%) [1]: 17%; In vivo mRNA knockdown (%) [2]: 23%

With “TGN-S-S-SEQ ID NO: 1248 (L) (C(TGN)FLEELWELLEHLL; reading uncertain; listed as Homo sapiens)” as the substance, how does the “In vivo mRNA knockdown (%)” value (Table 6, mice, sequential, peptide IV 15 min after siRNA IV, TGN-L-siRNA-III 0.5 mg/kg, peptide 5 mg/kg) read?
Its value is 24%.

Which “In vivo mRNA knockdown (%)” value [1] does the source give for “TGN-S-S-SEQ ID NO: 1403 (L) (C(TGN)GLLEEIEELLEEGLENLIDWWNS; reading uncertain; listed as Homo sapiens)” here?
Its value is 22%.

What about the “In vivo mRNA knockdown (%)” value [2] of the same substance?
Its value is 24%.

For “TGN-S-S-SEQ ID NO: 1489 (D) ([dC](S‑S‑TGN)[dL][dE][dL][dW][dL][dE][dH][dL][dF][dL][dE][dL][dE]; reading uncertain; also: Cys disulfide-linked to TGN peptide; listed as Homo sapiens)”, which “In vivo mRNA knockdown (%)” value (Table 6, mice, sequential, peptide IV 15 min after siRNA IV, TGN-L-siRNA-III 0.5 mg/kg, peptide 2 mg/kg) is on record?
Its value is 37%.

And the “In vivo mRNA knockdown (%)” value (Table 6, mice, sequential, peptide IV 15 min after siRNA IV, TGN-L-siRNA-III 0.5 mg/kg, peptide 10 mg/kg)?
The value was 26%.

What about the “In vivo mRNA knockdown (%)” value (Table 6, mice, sequential, peptide IV 15 min after siRNA IV, TGN-L-siRNA-III 0.5 mg/kg, peptide 25 mg/kg) of the same substance?
The value was 34%.

With “TGN-S-S-SEQ ID NO: 1516 (L) (C(TGN)GLFAEIEELLEEGLENLIDWWNG; reading uncertain; listed as Homo sapiens)” as the substance, how does the “In vivo mRNA knockdown (%)” value (Table 6, mice, sequential, peptide IV 15 min after siRNA IV, TGN-L-siRNA-III 0.25 mg/kg, peptide 5 mg/kg) read?
The value was 14%.

With “TGN-S-S-SEQ ID NO: 1631 (D) ([dC](S‑S‑TGN)G[dL][dF]G[dH][dI][dH][dH][dL][dI][dH][dH]G[dL][dH][dN][dL][dI][dD][dW][dW][dN]G; reading uncertain; also: Cys disulfide-linked to TGN peptide; listed as Homo sapiens)” as the substance, how does the “In vivo mRNA knockdown (%)” value [2] read?
Its value is 17%.

Which “In vivo mRNA knockdown (%)” value [2] does the source give for “TGN-S-S-SEQ ID NO: 1632 (D) ([dC](S‑S‑TGN)G[dL][dF]G[dE][dI][dH][dH][dL][dI][dH][dH]G[dL][dH][dN][dL][dI][dD][dW][dW][dN]G; reading uncertain; also: Cys disulfide-linked to TGN peptide; listed as Homo sapiens)” here?
Its value is 36%.

Which “In vivo mRNA knockdown (%)” value [2] does the source give for “TGN-S-S-SEQ ID NO: 1633 (D) ([dC](TGN)G[dL][dF]G[dE][dI][dH][dH][dL][dI][dH][dH]G[dL][dE][dN][dL][dI][dD][dW][dW][dN]G; reading uncertain; also: Cys disulfide-linked to TGN peptide; listed as Homo sapiens)” here?
Its value is 55%.

With “TGN-S-S-SEQ ID NO: 1634 (D) ([dC](TGN)G[dL][dF]G[dE][dI][dH][dE][dL][dI][dH][dH]G[dL][dE][dN][dL][dI][dD][dW][dW][dN]G; reading uncertain; also: Cys disulfide-linked to TGN peptide; listed as Homo sapiens)” as the substance, how does the “In vivo mRNA knockdown (%)” value [2] read?
Its value is 17%.

For “TGN-S-S-SEQ ID NO: 1643 (D) ([dC](TGN)G[dF][dF]G[dE][dI][dA][dE][dL][dI][dE][dE]G[dL][dK][dN][dL][dI][dD][dW]G[dN]G; reading uncertain; also: Cys disulfide-linked to TGN peptide; listed as Homo sapiens)”, which “In vivo mRNA knockdown (%)” value [2] is on record?
The value was 41%.

With “TGN-S-S-SEQ ID NO: 1651 (D) ([dC](TGN)G[dL][dF][dE][dE][dI][dA][dE][dL][dI][dE][dE]G[dL][dE][dN][dL][dI][dD][dW]G[dN]G; reading uncertain; also: Cys disulfide-linked to TGN peptide; listed as Homo sapiens)” as the substance, how does the “In vivo mRNA knockdown (%)” value [2] read?
Its value is 49%.
